SMILES strings stand for the structures.

One assay concerns the target T1, IRAK1 (Homo sapiens, UniProt P51617).
T1 construct: purchased ThermoFisher
In words: IRAK1 enzymatic assay (Adapta Universal Kinase Assay, ThermoFisher). The class given is biochemical. Particulars: 60 minutes at room temperature. The protocol:
To measure the IC50 values of the compounds herein against IRAK1, the Adapta Universal Kinase Assay (ThermoFisher) was used. Briefly, 100 nL of different concentrations of the compounds in 100% DMSO were added to each well of a 384-well plate (Corning Cat. #4512). 2.4 μL of 30 mM HEPES, 2.5 μL of 4×ATP solution (in water), and 5 μL of 2×IRAK1/Histone H3 (1-20) peptide mixture (prepared in 50 mM HEPES pH 7.5, 0.01% BRIJ-35, 10 mM MgCl2, 1 mM EGTA) were added to each well. The plate was shaken for 30 seconds and centrifuged for 1 minute at 1000×g. The plate was then incubated at room temperature for 60 minutes. 5 μL of Detection Mix was added to each well. The plate was shaken for 30 seconds and centrifuged for 1 minute at 1000×g. The plate was then incubated at room temperature for 60 minutes. The plate was subsequently read on a fluorescence plate reader, and the emissions ratio was calculated to determine the ratio of ATP to ADP. Emissions Ratio=AF647 Emission (665 nm)/Europium Emission (615 nm).

The next assay has as its target T2, IRAK4 (Homo sapiens, UniProt Q9NWZ3).
T2 construct: purchased ThermoFisher
T2 sequence (Q9NWZ3 1-460): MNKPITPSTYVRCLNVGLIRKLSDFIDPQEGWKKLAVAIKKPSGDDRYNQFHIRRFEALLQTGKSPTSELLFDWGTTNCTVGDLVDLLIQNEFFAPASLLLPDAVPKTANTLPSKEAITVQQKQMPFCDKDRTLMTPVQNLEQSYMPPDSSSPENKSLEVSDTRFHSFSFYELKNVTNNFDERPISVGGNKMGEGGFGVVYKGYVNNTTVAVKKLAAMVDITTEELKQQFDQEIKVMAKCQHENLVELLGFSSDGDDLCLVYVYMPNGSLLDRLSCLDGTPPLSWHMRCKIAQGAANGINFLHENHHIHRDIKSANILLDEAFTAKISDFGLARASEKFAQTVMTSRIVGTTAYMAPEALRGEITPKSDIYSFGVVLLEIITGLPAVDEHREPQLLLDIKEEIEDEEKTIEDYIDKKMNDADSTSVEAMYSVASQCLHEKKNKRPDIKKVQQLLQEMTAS
In words: IRAK4 enzymatic assay (Z'-LYTE, ThermoFisher). The class given is biochemical. As to conditions: 60 minutes at room temperature. The protocol: To measure the IC50 values of compounds herein against IRAK4, a Z′-LYTE assay (ThermoFisher) was used. Briefly, 2.5 μL of different concentrations of the compounds in 1% DMSO were added to 2.4 μL kinase buffer (50 mM HEPES pH 7.5, 0.01% BRIJ-35, 10 mM MgCl2, 1 mM EGTA) in each well of a 384-well plate (Corning Cat. #3676). 5 μL of 2×IRAK4/Ser/Thr 07 mixture (prepared in 50 mM HEPES pH 7.5, 0.01% BRIJ-35, 10 mM MnCl2, 2 mM DTT, and 0.02% NaN3) and 2.5 μL of 4×ATP solution (4×ATP, 50 mM HEPES, pH 7.5, 0.01% BRIJ-35, 10 mM MgCl2, 1 mM EGTA) were added to each well. The plate was shaken for 30 seconds, and then incubated at room temperature for 60 minutes. 5 μL of a 1:100000 dilution of Development Reagent A was added to each well. The plate was shaken for 30 seconds and incubated for 60 minutes at room temperature. The plate was subsequently read on a fluorescence plate reader, and the emissions ratio was calculated to determine the ratio of Ser/Thr 07 phosphorylated by the reaction. Emissions Ratio=Coumarin Emission (443 nm)/Flourescein Emission (520 nm).

T1 sequence (P51617 whole entry): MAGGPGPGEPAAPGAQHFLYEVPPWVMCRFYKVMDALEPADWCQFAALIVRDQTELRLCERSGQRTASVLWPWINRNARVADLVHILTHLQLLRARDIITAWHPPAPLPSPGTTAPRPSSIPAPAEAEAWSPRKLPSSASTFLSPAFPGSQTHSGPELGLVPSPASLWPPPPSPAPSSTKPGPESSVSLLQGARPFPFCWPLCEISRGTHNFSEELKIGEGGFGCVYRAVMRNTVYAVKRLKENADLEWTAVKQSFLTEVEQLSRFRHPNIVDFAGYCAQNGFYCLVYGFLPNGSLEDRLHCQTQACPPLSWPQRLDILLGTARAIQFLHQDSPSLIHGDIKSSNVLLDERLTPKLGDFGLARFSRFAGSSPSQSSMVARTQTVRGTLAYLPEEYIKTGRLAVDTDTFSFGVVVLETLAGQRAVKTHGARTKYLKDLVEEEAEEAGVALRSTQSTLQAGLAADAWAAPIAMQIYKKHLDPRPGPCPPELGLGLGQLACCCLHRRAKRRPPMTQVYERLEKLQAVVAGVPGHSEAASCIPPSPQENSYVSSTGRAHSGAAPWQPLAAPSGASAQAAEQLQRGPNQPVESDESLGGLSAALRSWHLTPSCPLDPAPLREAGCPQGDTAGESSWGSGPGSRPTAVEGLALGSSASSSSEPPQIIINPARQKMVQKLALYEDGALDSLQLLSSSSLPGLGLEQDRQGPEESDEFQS

For orientation: IC50 means the concentration needed to halve the response being measured. With `CC(C)N1CCC(c2cc(NC(=O)c3cccc(CCC(N)=O)n3)n(-c3ccccn3)n2)CC1` [Compound 019, 6-(3-amino-3-oxopropyl)-N-(3-(1-isopropylpiperidin-4-yl)-1-(pyridin-2-yl)-1H-pyrazol-5-yl)picolinamide], the 50% inhibitory concentration (IC50) on IRAK1 stood at 242 nM; against IRAK4 it was 47 nM.
On to `Cc1ccc(-n2nc(C3CCN(C4COC4)CC3)cc2NC(=O)c2ccccn2)nc1` [Compound 008, N-(1-(5-methylpyridin-2-yl)-3-(1-(oxetan-3-yl)piperidin-4-yl)-1H-pyrazol-5-yl)picolinamide], for which the figures for the IC50 on IRAK1 and against IRAK4 were 1350 nM and 148 nM, respectively.
With `CC(C)N1CCC(c2cc(NC(=O)c3cccc(-c4cnoc4)n3)n(-c3ccccn3)n2)CC1` [Compound 007, N-(3-(1-isopropylpiperidin-4-yl)-1-(pyridin-2-yl)-1H-pyrazol-5-yl)-6-(isoxazol-4-yl)picolinamide], the results for the IC50 at IRAK1 and against IRAK4 were 317 nM and 31 nM, respectively.
In the same order, the values of `CC(C)N1CCC(c2cc(NC(=O)c3cccc(-c4cn[nH]c4)n3)n(-c3ccccn3)n2)CC1` [Compound 003, N-(3-(1-isopropylpiperidin-4-yl)-1-(pyridin-2-yl)-1H-pyrazol-5-yl)-6-(1H-pyrazol-4-yl)picolinamide] are 66 nM and 6 nM.
For `Cc1ccc(-n2nc(C3CCN(C(C)C)CC3)cc2NC(=O)c2cccc(C#N)n2)nc1` [Compound 017, 6-cyano-N-(3-(1-isopropylpiperidin-4-yl)-1-(5-methylpyridin-2-yl)-1H-pyrazol-5-yl)picolinamide], the IC50 on IRAK1 was 90 nM; against IRAK4, 9 nM.
As to `CC(C)N1CCC(c2cc(NC(=O)c3cccc(/C=C/C(N)=O)n3)n(-c3ccccn3)n2)CC1` [Compound 018, (E)-6-(3-amino-3-oxoprop-1-en-1-yl)-N-(3-(1-isopropylpiperidin-4-yl)-1-(pyridin-2-yl)-1H-pyrazol-5-yl)picolinamide], the half-maximal inhibitory concentration (IC50) at IRAK1 turned out to be 234 nM; against IRAK4, 24 nM.
For `Cc1ccc(-n2nc(C3CCN(C(C)C)CC3)cc2NC(=O)c2cccc(-c3cnoc3)n2)nc1` [Compound 006, N-(3-(1-isopropylpiperidin-4-yl)-1-(5-methylpyridin-2-yl)-1H-pyrazol-5-yl)-6-(isoxazol-4-yl)picolinamide], in that order: 15 nM and 6 nM.
As for `CC(C)N1CCC(c2cc(NC(=O)c3cccc(N4CCNCC4)n3)n(-c3ccccn3)n2)CC1` [Compound 020, N-(3-(1-isopropylpiperidin-4-yl)-1-(pyridin-2-yl)-1H-pyrazol-5-yl)-6-(piperazin-1-yl)picolinamide], the half-maximal inhibitory concentration (IC50) against IRAK1 is 10000 nM; at IRAK4, 561 nM.
In the case of `CN1CCC(c2cc(NC(=O)c3cccc(-c4ccn[nH]4)n3)n(-c3ccccn3)n2)CC1` [Compound 001, N-(3-(1-Methylpiperidin-4-yl)-1-(pyridin-2-yl)-1H-pyrazol-5-yl)-6-(1H-pyrazol-5-yl)picolinamide], the IC50 was 8 nM against IRAK1 and 4 nM against IRAK4.
For `Cc1ccc(-n2nc(C3CCN(C(C)C)CC3)cc2NC(=O)c2ccccn2)nc1` [Compound 009, N-(3-(1-isopropylpiperidin-4-yl)-1-(5-methylpyridin-2-yl)-1H-pyrazol-5-yl)picolinamide], in that order: 1650 nM and 55 nM.
For `Cc1ccc(-n2nc(C3CCN(C(C)C)CC3)cc2NC(=O)c2cccc(-c3cnn(CC(=O)N(C)C)c3)n2)nc1` [Compound 013, 6-(1-(2-(dimethylamino)-2-oxoethyl)-1H-pyrazol-4-yl)-N-(3-(1-isopropylpiperidin-4-yl)-1-(5-methylpyridin-2-yl)-1H-pyrazol-5-yl)picolinamide], in that order: 718 nM and 45 nM.
For `CC(C)N1CCC(c2cc(NC(=O)c3cccc(-c4cnsc4)n3)n(-c3ccccn3)n2)CC1` [Compound 005, N-(3-(1-isopropylpiperidin-4-yl)-1-(pyridin-2-yl)-1H-pyrazol-5-yl)-6-(isothiazol-4-yl)picolinamide], in that order: 183 nM and 37 nM.
Take `CNC(=O)Cn1cc(-c2cccc(C(=O)Nc3cc(C4CCN(C(C)C)CC4)nn3-c3ccc(C)cn3)n2)cn1` [Compound 014, N-(3-(1-isopropylpiperidin-4-yl)-1-(5-methylpyridin-2-yl)-1H-pyrazol-5-yl)-6-(1-(2-(methylamino)-2-oxoethyl)-1H-pyrazol-4-yl)picolinamide]: the half-inhibitory concentration (IC50) against IRAK1 worked out at 656 nM; at IRAK4, 36 nM.
For `Cc1ccc(-n2nc(C3CCN(C)CC3)cc2NC(=O)c2ccccn2)nc1` [Compound 011, N-(3-(1-methylpiperidin-4-yl)-1-(5-methylpyridin-2-yl)-1H-pyrazol-5-yl)picolinamide], the IC50 against IRAK1 stood at 835 nM; on IRAK4 it was 170 nM.
Consider `Cc1ccc(-n2nc(C3CCN(C(C)C)CC3)cc2NC(=O)c2cccc(-c3cn[nH]c3)n2)nc1` [Compound 002, N-(3-(1-isopropylpiperidin-4-yl)-1-(5-methylpyridin-2-yl)-1H-pyrazol-5-yl)-6-(1H-pyrazol-4-yl)picolinamide], for which the concentration for half-maximal inhibition (IC50) against IRAK1 came to 36 nM; on IRAK4 it was 3 nM.
On to `CC(C)N1CCC(c2cc(NC(=O)c3ccccn3)n(-c3ccccn3)n2)CC1` [Compound 010, N-(3-(1-isopropylpiperidin-4-yl)-1-(pyridin-2-yl)-1H-pyrazol-5-yl)picolinamide], for which the 50% inhibitory concentration (IC50) against IRAK1 was 1100 nM; against IRAK4, 43 nM.
Turning to `Cc1ccc(-n2nc(C3CCN(C(C)C)CC3)cc2NC(=O)c2cccc(-c3cnsc3)n2)nc1` [Compound 004, N-(3-(1-isopropylpiperidin-4-yl)-1-(5-methylpyridin-2-yl)-1H-pyrazol-5-yl)-6-(isothiazol-4-yl)picolinamide], the results for the IC50 on IRAK1 and against IRAK4 were 372 nM and 24 nM, respectively.
Turning to `Cc1ccc(-n2nc(C3CCN(C(C)C)CC3)cc2NC(=O)c2cccc(-c3ccn[nH]3)n2)nc1` [Compound 012, N-(3-(1-isopropylpiperidin-4-yl)-1-(5-methylpyridin-2-yl)-1H-pyrazol-5-yl)-6-(1H-pyrazol-5-yl)picolinamide], the figures for the half-inhibitory concentration (IC50) against IRAK1 and on IRAK4 were 7 nM and 3 nM, respectively.
With `CC(C)N1CCC(c2cc(NC(=O)c3cccc(-c4cnn(CC(N)=O)c4)n3)n(-c3ccccn3)n2)CC1` [Compound 016, 6-(1-(2-amino-2-oxoethyl)-1H-pyrazol-4-yl)-N-(3-(1-isopropylpiperidin-4-yl)-1-(pyridin-2-yl)-1H-pyrazol-5-yl)picolinamide], the concentration for half-maximal inhibition (IC50) came out at 828 nM against IRAK1 and 39 nM on IRAK4.

(Values after patent US20240391899A1, “POTENT AND SELECTIVE INHIBITORS OF IRAK4” (Dana-Farber Cancer Institute, Inc., priority 2021, published 2024).)
